The record followed here is patent US20110124607A1, “COMPOSITION FOR REGULATION CELLULAR SENESCENCE COMPRISING LYSOPHOSPHATIDIC ACID AND INHIBITOR OF ADENYLYL CYCLASE AS ACTIVE INGREDIENTS” (priority 2008, published 2011).

Common to all, as to format: cell-based, human
One data set concerns cyclin D1. In words: Immunofluorescent staining of cyclin D1. The following applies: 30 μM LPA. How it is done:
FIG. 3 is a set of photographs illustrating the effect of LPA and ACI on the expressions of p21 and cyclin-D1 in young and senescent cells. Particularly, a-f, g-l and m-r are photographs illustrating that sub-cultured young cells (PD 20: Y) and senescent cells (PD 65: S) were serum-starved for 48 hours respectively, followed by treatment of LPA (a-f) and ACI (g-l) singly or together (m-r), and after culturing for 1, 2, and 4 days, the cells were fixed in 4% hydrogen peroxide, and stained with p21waf1/cip1 (A) and cyclin D1 (B) antibodies, followed by confirming immunofluorescence. At this time, nucleus was stained with DAPI.
Coverslips were placed on 24 well plate on which required amounts of young and senescent cells were distributed. Media were eliminated and the treated cells were washed with PBS twice. Then, the cells were fixed with 4% hydrogen peroxide. Non-specific protein staining was blocked using PBS containing 2% BSA (blocking serum). The cells were stained with primary antibody such as anti-AMPKα, anti-p-Thr172-AMPKα, anti-p-Ser485/491-AMPKα, anti-p53, anti-p-Ser15-p53, anti-p21waf1/cip1, and anti-cyclin D1. To stain nucleus, DAPI (1:1000) was also added, followed by observation under Zeiss LSM 510 laser scanning microscope. […]

Data set [1] concerns fibroblasts (young and senescent cells). Description: Soft agar assay (colony formation). The conditions noted are these: 30 μM LPA, 300 μM ACI, three weeks. The protocol:
Young and senescent cells were distributed in DMEM containing 10% bovine serum and 0.3% top agar, which were loaded on 0.6% basic agar layer in 60 mm culture dish. The cells treated with 30 μM LPA (L), 300 μM ACI (A), or both LPA and ACI for three weeks were fixed with 70% ethanol, and so was the control treated with nothing. After staining the cells with trypan blue, colonies were counted under microscope. HeLa and HepG2 cancer cell lines were distributed on soft agar dish, as positive controls, followed by treatment with LPA, ACI, or LPA+ACI. Colony formation was also analysed. The number of colonies formed in soft agar dish was plotted as mean+/− standard deviation and each measurement was repeated at least three times.
LPA and ACI were treated to fibroblast and cancer cell groups, followed by soft agar assay. […] From the above results, it was confirmed that LPA and ACI induce normal cell proliferation but not cause any transformation of cells to turn them into tumor.

A further data set has as its system p21waf1/cip1. In words: Immuno-blotting of p21waf1/cip1. The conditions noted are these: for p21 expression after suppressing PKA: senescent cells pre-treated with 10 mM PKA inhibitor Rp-cAMP for one hour; for p21 expression (immuno-blotting): senescent cells, 30 μM LPA, 300 μM ACI, 10 mM AMPKI, 10 mM AICAR. How it is done:
(A) and (B): Young and senescent cells were serum-starved for 2 days, followed by treatment with 10 mM of AMPK inhibitor […]) or 10 mM of AMPK activator AICAR(B) for 4 days. Proteins were extracted from the treated cells and the levels of AMPKα and p-Thr172-AMPKα, total p53, p-Ser15-p53 and […] measured by immuno-blotting. (C) and (D): Young cells (C) and senescent cells (D) were treated with 10 mM AMPKI or 10 mM AICAR and cultured for 4 days, followed by measurement of cell proliferation by cell counting. At this time, the experiment was repeated three times (p<0.001). (A) and (B) are photographs illustrating the results of immuno-blotting. Precisely, sub-cultured young cells (PD 18: A) and senescent cells (PD 64: B) were treated with 30 μM of LPA […] and ACI singly or together, followed by further culture for 1, 2, and 4 days. Proteins were extracted from the cultured cells and the levels of AMPKα, […] β-actin were quantified by immuno-blotting. (A) and (B) are photographs illustrating the results of immuno-blotting. Precisely, senescent cells (PD 64) were pre-treated with 10 mM of PKA inhibitor Rp-cAMP for one hour, followed by treatment with LPA(A) or ACI(B). After culturing the cells for 1, 2, and 4 days, proteins were extracted from the cultured cells and the levels of AMPKα, […] β-actin were quantified by immuno-blotting using 45 μg of the protein. To analyse protein expression, human fibroblasts were lysed in cold lysis buffer (25 mM Hepes, pH 8.0, 150 mM NaCl, 1 mM EDTA, 1 mM Na3VO4, 1 mM NaF, 1% Triton X-100 and protease inhibitors), followed by centrifugation at 4° C. at 9,000 rpm for 10 minutes to obtain supernatant. Protein in the extract was quantified […]. SDS-PAGE electrophoresis was performed with equal amount of the protein (45 μg) to separate. The separated protein was transferred onto NC membrane from the electrophoresis gel. Non-specific protein binding was blocked by blocking the blot (transferred NC membrane) using TTBS […] containing 5% skim milk for one hour. Then, antigen-antibody reaction was induced with diluted primary antibody at 4° C. for overnight. The blot was washed with TTBS, followed by reaction with horseradish peroxidase conjugated anti-IgGs diluted in TTBS containing 5% skim milk (1:5000) at room temperature for one hour. The blot was washed again with TTBS to eliminate non-specific binding of antigen-antibody. Photographs were developed/printed on X-ray film (Kodak) using ECL kit (Pierce) containing peroxidase substrate to identify each protein.

`Nc1ncnc2c1ncn2C1CCCO1` (centres unmarked) [ACI, 9-(tetrahydro-2′-furyl)adenine]: the “cyclin D1 expression (immunofluorescence)” value in the data set with cyclin D1 (senescent cells, 300 μM ACI) was “reduced”. Also, the “colony formation in soft agar (transformation)” value in data set [1] is reported as “did not form any colony”. In the data set with p21waf1/cip1, the “p21 expression after suppressing PKA” value is listed as “not changed” and the “p21 expression (immuno-blotting)” value is recorded as “reduced”.
Consider lysophosphatidic acid [LPA], for which the “cyclin D1 expression (immunofluorescence)” value in the data set with cyclin D1 (young cells) was “decrease”. In addition, the “colony formation in soft agar (transformation)” value in data set [1] is on record as “did not form any colony”. Also, in the data set with p21waf1/cip1, the “p21 expression after suppressing PKA” value is given as “not changed at all” and the “p21 expression (immuno-blotting)” value is reported as “reduced”.
